# From PubChem BioAssay (NCI)
#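 A five-concentration, 48-hour dose response in 96-well plates underlies each endpoint, interpolated linearly between surrounding concentrations. GI50 marks 50% less growth. TGI: total growth inhibition.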
# Legend:
# Assay in all cases: growth of human tumour cells (NCI), 48 h
# [1] = tested on: HOP-92 NSCLC
# [2] = tested on: ACHN renal
# [3] = tested on: 786-0 renal
# [4] = tested on: OVCAR-3 ovarian
# [5] = tested on: MDA-MB-231 breast
# [6] = tested on: SNB-19 CNS
# [7] = tested on: HL-60(TB) leukemia
# [8] = tested on: A549 NSCLC
# [9] = tested on: M14 melanoma
# [10] = tested on: MDA-MB-435
# [11] = tested on: KM12 colon
# [12] = tested on: CCRF-CEM leukemia
# [13] = tested on: SK-OV-3 ovarian
# [14] = tested on: SF-295 CNS
# [15] = tested on: A498 renal
# [16] = tested on: HOP-62 NSCLC
# [17] = tested on: PC-3 prostate
# [18] = tested on: SK-MEL-28 melanoma
# [19] = tested on: NCI/ADR-RES ovarian
# [20] = tested on: SK-MEL-2 melanoma
# [21] = tested on: RXF 393 renal
# [22] = tested on: OVCAR-5 ovarian
# [23] = tested on: CAKI-1 renal
# [24] = tested on: COLO 205 colon
# [25] = tested on: SF-268 CNS
# [26] = tested on: UACC-257 melanoma
# [27] = tested on: NCI-H522 lung
# [28] = tested on: DU-145 prostate
# [29] = tested on: MALME-3M melanoma
# [30] = tested on: EKVX NSCLC
# [31] = tested on: MCF7 breast
# [32] = tested on: SF-539 CNS
# [33] = tested on: UACC-62 melanoma
# [34] = tested on: IGROV1 ovarian
# [35] = tested on: HS 578T breast
# [36] = tested on: NCI-H460 lung
# [37] = tested on: OVCAR-8 ovarian
# [38] = tested on: HCC-2998 colon
# [39] = tested on: UO-31 renal
# [40] = tested on: HCT-15 colon
# [41] = tested on: U251 CNS
# [42] = tested on: OVCAR-4 ovarian
# [43] = tested on: SR leukemia
# [44] = tested on: LOX IMVI melanoma
# [45] = tested on: HT29 colon
# [46] = tested on: TK-10 renal
# [47] = tested on: SNB-75 CNS
# [48] = tested on: SN12C renal
# [49] = tested on: HCT-116 colon
# [50] = tested on: T-47D breast
# [51] = tested on: MDA-N
# [52] = tested on: SK-MEL-5 melanoma
# [53] = tested on: NCI-H23 lung
# [54] = tested on: SW-620 colon
# [55] = tested on: MOLT-4 leukemia
# [56] = tested on: RPMI-8226 leukemia
# [57] = tested on: K-562 leukemia
compound,measurement,setting,value
CCCn1c2c(c3ccccc3c1=O)C(=O)c1cc3c(cc1-2)OCO3,GI50,[1],0.159 µM
same,TGI,[1],0.458 µM
same,GI50,[2],> 100 µM
same,TGI,[2],> 100 µM
same,GI50,[3],77.2 µM
same,TGI,[3],> 100 µM
same,GI50,[4],21 µM
same,TGI,[4],> 100 µM
same,GI50,[5],> 100 µM
same,TGI,[5],> 100 µM
same,GI50,[6],> 100 µM
same,TGI,[6],> 100 µM
same,GI50,[7],> 100 µM
same,TGI,[7],> 100 µM
same,GI50,[8],> 100 µM
same,TGI,[8],> 100 µM
same,GI50,[9],> 100 µM
same,TGI,[9],> 100 µM
same,GI50,[10],> 100 µM
same,TGI,[10],> 100 µM
same,GI50,[11],31.5 µM
same,TGI,[11],> 100 µM
same,GI50,[12],> 100 µM
same,TGI,[12],> 100 µM
same,GI50,[13],> 100 µM
same,TGI,[13],> 100 µM
same,GI50,[14],44.8 µM
same,TGI,[14],> 100 µM
same,GI50,[15],> 100 µM
same,TGI,[15],> 100 µM
same,GI50,[16],> 100 µM
same,TGI,[16],> 100 µM
same,GI50,[17],71.1 µM
same,TGI,[17],> 100 µM
same,GI50,[18],> 100 µM
same,TGI,[18],> 100 µM
same,GI50,[19],76.9 µM
same,TGI,[19],> 100 µM
same,GI50,[20],> 100 µM
same,TGI,[20],> 100 µM
same,GI50,[21],> 100 µM
same,TGI,[21],> 100 µM
same,GI50,[22],> 100 µM
same,TGI,[22],> 100 µM
same,GI50,[23],97.3 µM
same,TGI,[23],> 100 µM
same,GI50,[24],> 100 µM
same,TGI,[24],> 100 µM
same,GI50,[25],> 100 µM
same,TGI,[25],> 100 µM
same,GI50,[26],> 100 µM
same,TGI,[26],> 100 µM
same,GI50,[27],60.1 µM
same,TGI,[27],> 100 µM
same,GI50,[28],> 100 µM
same,TGI,[28],> 100 µM
same,GI50,[29],> 100 µM
same,TGI,[29],> 100 µM
same,GI50,[30],91.2 µM
same,TGI,[30],> 100 µM
same,GI50,[31],9.39 µM
same,TGI,[31],> 100 µM
same,GI50,[32],> 100 µM
same,TGI,[32],> 100 µM
same,GI50,[33],> 100 µM
same,TGI,[33],> 100 µM
same,GI50,[34],44.4 µM
same,TGI,[34],> 100 µM
same,GI50,[35],> 100 µM
same,TGI,[35],> 100 µM
same,GI50,[36],26.8 µM
same,TGI,[36],> 100 µM
same,GI50,[37],> 100 µM
same,TGI,[37],> 100 µM
same,GI50,[38],16.9 µM
same,TGI,[38],99.6 µM
same,GI50,[39],> 100 µM
same,TGI,[39],> 100 µM
same,GI50,[40],> 100 µM
same,TGI,[40],> 100 µM
same,GI50,[41],> 100 µM
same,TGI,[41],> 100 µM
same,GI50,[42],> 100 µM
same,TGI,[42],> 100 µM
same,GI50,[43],6.1 µM
same,TGI,[43],> 100 µM
same,GI50,[44],> 100 µM
same,TGI,[44],> 100 µM
same,GI50,[45],> 100 µM
same,TGI,[45],> 100 µM
same,GI50,[46],86.9 µM
same,TGI,[46],> 100 µM
same,GI50,[47],> 100 µM
same,TGI,[47],> 100 µM
same,GI50,[48],> 100 µM
same,TGI,[48],> 100 µM
same,GI50,[49],30.5 µM
same,TGI,[49],> 100 µM
same,GI50,[50],> 100 µM
same,TGI,[50],> 100 µM
same,GI50,[51],> 100 µM
same,TGI,[51],> 100 µM
same,GI50,[52],> 100 µM
same,TGI,[52],> 100 µM
same,GI50,[53],> 100 µM
same,TGI,[53],> 100 µM
same,GI50,[54],83.2 µM
same,TGI,[54],> 100 µM
CO[C@]12CC(=O)C3(C(C[C@H]4CC5CCC6=CC(=O)CC[C@]6(OC(C)=O)C5C[C@@]43C)C1)C1C[C@H]3[C@@H]4CCC5=CC(=O)CC[C@]5(OC(C)=O)[C@H]4CC[C@]3(C)C12 (stereo partly drawn),TGI,[1],> 100 µM
same,TGI,[2],> 100 µM
same,TGI,[3],> 100 µM
same,TGI,[4],> 100 µM
same,TGI,[5],74.7 µM
same,TGI,[55],> 100 µM
same,TGI,[6],> 100 µM
same,TGI,[7],> 100 µM
same,TGI,[8],> 100 µM
same,TGI,[9],> 100 µM
same,TGI,[10],> 100 µM
same,TGI,[12],> 100 µM
same,TGI,[13],> 100 µM
same,TGI,[14],> 100 µM
same,TGI,[15],> 100 µM
same,TGI,[16],> 100 µM
same,TGI,[17],> 100 µM
same,TGI,[56],> 100 µM
same,TGI,[18],> 100 µM
same,TGI,[19],> 100 µM
same,TGI,[20],> 100 µM
same,TGI,[22],> 100 µM
same,TGI,[23],> 100 µM
same,TGI,[24],56.7 µM
same,TGI,[25],> 100 µM
same,TGI,[26],> 100 µM
same,TGI,[27],> 100 µM
same,TGI,[28],> 100 µM
same,TGI,[29],> 100 µM
same,TGI,[30],> 100 µM
same,TGI,[31],> 100 µM
same,TGI,[32],> 100 µM
same,TGI,[33],> 100 µM
same,TGI,[34],> 100 µM
same,TGI,[35],> 100 µM
same,TGI,[36],> 100 µM
same,TGI,[37],> 100 µM
same,TGI,[38],> 100 µM
same,TGI,[39],> 100 µM
same,TGI,[57],> 100 µM
same,TGI,[40],> 100 µM
same,TGI,[41],> 100 µM
same,TGI,[42],> 100 µM
same,TGI,[43],> 100 µM
same,TGI,[44],> 100 µM
same,TGI,[45],> 100 µM
same,TGI,[46],> 100 µM
same,TGI,[47],> 100 µM
same,TGI,[48],> 100 µM
same,TGI,[49],> 100 µM
same,TGI,[50],> 100 µM
same,TGI,[51],> 100 µM
same,TGI,[52],> 100 µM
same,TGI,[53],> 100 µM
same,TGI,[54],> 100 µM
